Key:
[1] = target: Dipeptidyl peptidase 2 (Homo sapiens, UniProt Q9UHL4); assay: hDPP7 Inhibition Assay
Protocol: Table 4: Compounds were tested in a biochemical inhibition assay using human dipeptidylpeptidase 7 (hDPP7) enzyme at 15 nM FAC (BPS Bioscience, #80070) and the substrate Ala-Pro-amino-methylcoumarin (BPS Bioscience, #80305) at 5 μM FAC. The enzymatic reactions were conducted in duplicate at rt for 30 min in 50 μL DPP assay buffer (BPS Bioscience, #80300). Compound solutions (in DMSO) at 10 CR, 3 fold dilution series were prepared in assay buffer ten-fold higher than the final concentration, and 5 μL of the dilution was added to a 50 μL reaction so that the highest compound concentration was 100 μM FAC and the concentration of DMSO was 1% in all wells. The plates were read on a Tecan Infinite M1000 microplate reader with excitation 340 nm and emission 460 nm. Data were analyzed in Graph Pad Prism. IC50 values were determined by plotting % inhibition versus log compound concentration and using a one site dose response model. Raw data signals were normalized using 1% DMSO as 0% control and no enzyme as 100% inhibitor control.

[2] = target: T1, Prolyl endopeptidase FAP (Homo sapiens, UniProt Q12884); assay: hFAP Binding Assay; conditions: for kon: read-out: kon (M-1-s-1)
T1 sequence (Q12884 whole entry): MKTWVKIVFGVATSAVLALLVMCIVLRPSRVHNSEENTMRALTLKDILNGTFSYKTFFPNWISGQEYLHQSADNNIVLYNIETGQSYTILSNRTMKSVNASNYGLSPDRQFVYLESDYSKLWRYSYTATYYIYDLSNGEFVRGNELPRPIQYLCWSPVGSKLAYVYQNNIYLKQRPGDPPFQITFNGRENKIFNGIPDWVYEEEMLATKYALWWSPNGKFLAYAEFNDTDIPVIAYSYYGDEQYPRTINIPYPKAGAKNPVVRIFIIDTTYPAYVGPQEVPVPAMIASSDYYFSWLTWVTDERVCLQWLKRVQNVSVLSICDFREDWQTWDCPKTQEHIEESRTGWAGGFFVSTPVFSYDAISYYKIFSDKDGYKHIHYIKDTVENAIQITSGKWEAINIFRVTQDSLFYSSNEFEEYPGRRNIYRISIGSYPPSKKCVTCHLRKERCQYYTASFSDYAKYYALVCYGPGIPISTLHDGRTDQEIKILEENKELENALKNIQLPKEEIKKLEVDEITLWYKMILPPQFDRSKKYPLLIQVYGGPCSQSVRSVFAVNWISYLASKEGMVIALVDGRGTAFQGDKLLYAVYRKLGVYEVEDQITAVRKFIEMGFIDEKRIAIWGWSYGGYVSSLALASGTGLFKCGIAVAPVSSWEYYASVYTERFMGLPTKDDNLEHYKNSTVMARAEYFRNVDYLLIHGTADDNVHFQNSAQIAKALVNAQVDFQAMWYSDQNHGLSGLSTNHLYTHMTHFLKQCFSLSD
Protocol: Table 1: Compounds were tested in a direct binding assay using 8K surface plasmon resonance biosensor (GE Healthcare) at 20° C. Immobilization of hFAP (M39-A757) on a CMD200M sensor chip (Xantec) was performed using standard amine coupling procedure in immobilization buffer (10 mM HEPES, 150 mM NaCl, 0.05% Tween20, pH 7.4). The surface was washed with 10 mM NaOH, 1M NaCl before being activated with EDC/NHS (GE Healthcare), followed by immobilization of hFAP (in 10 mM Acetate pH 5.0). Finally, the surface was deactivated by ethanolamine. Immobilization levels of hFAP were around 4000-6000 RU. The reference spot was treated as described, omitting the injection of hFAP. Compound concentration series were injected over the immobilized protein in increasing concentrations (2-500 nM) using single cycle kinetics in running buffer (20 mM TRIS, 150 mM NaCl, 0.05% Tween20, 1% DMSO, pH 7.4).

Compound | IC50 [1] [µM] | koff [2] [s⁻¹] | kon [2] [M⁻¹ s⁻¹]
Cc1cc(N2CCOCC2)cc2c(C(=O)NCC(=O)N3CSC[C@H]3C#N)ccnc12 [US20230312550, Example 9] | > 100 |  | 
CC1(CS(C)(=O)=O)CN(c2ccc3nccc(C(=O)NCC(=O)N4CSC[C@H]4C#N)c3c2)C1 [US20230312550, Example 188] |  | 2.2e-05 | 2.6e+06
CCC1(O)CCN(c2ccc3nccc(C(=O)NCC(=O)N4CSC[C@H]4C#N)c3c2)CC1 [US20230312550, Example 189] |  | 5.1e-05 | 2.6e+06
CCC1(OC)CCN(c2ccc3nccc(C(=O)NCC(=O)N4CSC[C@H]4C#N)c3c2)CC1 [US20230312550, Example 191] |  | 3.3e-05 | 1.5e+06
CC(C)C1(O)CCN(c2ccc3nccc(C(=O)NCC(=O)N4CSC[C@H]4C#N)c3c2)CC1 [US20230312550, Example 192] |  | 1.4e-05 | 1.3e+06
CN1CCC(F)(c2ccc3nccc(C(=O)NCC(=O)N4CSC[C@H]4C#N)c3c2)CC1 [US20230312550, Example 195] |  | 6.1e-05 | 190000
CC(C)n1nccc1-c1ccc2nccc(C(=O)NCC(=O)N3CSC[C@H]3C#N)c2c1 [US20230312550, Example 197] |  | 6.6e-05 | 88000
N#C[C@@H]1CSCN1C(=O)CNC(=O)c1ccnc2ccc(N3C4CCC3CC4)cc12 [US20230312550, Example 209] |  | 4.2e-05 | 3.2e+06
COC[C@@H]1CCCN1c1ccc2nccc(C(=O)NCC(=O)N3CSC[C@H]3C#N)c2c1 [US20230312550, Example 212] |  | 0.00034 | 3.3e+06
Cc1nc(C)c(-c2ccc3nccc(C(=O)NCC(=O)N4CSC[C@H]4C#N)c3c2)o1 [US20230312550, Example 215] |  | 0.00017 | 1.8e+06
Cc1noc(C)c1-c1ccc2nccc(C(=O)NCC(=O)N3CSC[C@H]3C#N)c2c1 [US20230312550, Example 216] |  | 0.0009 | 5.2e+06
N#C[C@@H]1CSCN1C(=O)CNC(=O)c1ccnc2ccc(-n3ccnc3-c3ccccc3)cc12 [US20230312550, Example 217] |  | 0.0013 | 1.8e+06
N#C[C@@H]1CSCN1C(=O)CNC(=O)c1ccnc2ccc(-n3ccc(-c4ccccc4)c3)cc12 [US20230312550, Example 218] |  | 0.00032 | 670000
N#C[C@@H]1CSCN1C(=O)CNC(=O)c1ccnc2ccc(-n3ccc4c3CCCC4)cc12 [US20230312550, Example 219] |  | 0.0002 | 2.4e+06
N#C[C@@H]1CSCN1C(=O)CNC(=O)c1ccnc2ccc(N3CCC(F)(c4ccccc4)CC3)cc12 [US20230312550, Example 223] |  | 2.6e-05 | 2.5e+06
N#C[C@@H]1CSCN1C(=O)CNC(=O)c1ccnc2ccc(N3CCC4(CC3)COC4)cc12 [US20230312550, Example 229] |  | 2.6e-05 | 2.4e+06

Results, then the molecule that gave them:

IC50 [1] [µM] | koff [2] [s⁻¹] | kon [2] [M⁻¹ s⁻¹] | Compound
 | 3.6e-05 | 1.8e+06 | CC1(O)CCN(c2ccc3nccc(C(=O)NCC(=O)N4CSC[C@H]4C#N)c3c2)CC1 [US20230312550, Example 190]
 | 0.00012 | 740000 | C[C@@H]1CN(c2ccc3nccc(C(=O)NCC(=O)N4CSC[C@H]4C#N)c3c2)C[C@H](C)[C@]1(C)O [US20230312550, Example 193]
 | 6.8e-05 | 1.1e+06 | N#C[C@@H]1CSCN1C(=O)CNC(=O)c1ccnc2ccc(N3C[C@H]4CCC[C@@H](C3)O4)cc12 [US20230312550, Example 194]
 | 0.00011 | 2.9e+06 | C[C@]1(F)CCN(c2ccc3nccc(C(=O)NCC(=O)N4CSC[C@H]4C#N)c3c2)C1 [US20230312550, Example 198]
 | 0.00026 | 2.3e+06 | N#C[C@@H]1CSCN1C(=O)CNC(=O)c1ccnc2ccc(N3CCC[C@@H]3C3CC3)cc12 [US20230312550, Example 199]
 | 0.00023 | 2.5e+06 | N#C[C@@H]1CSCN1C(=O)CNC(=O)c1ccnc2ccc(N3CCC[C@H]3C3CC3)cc12 [US20230312550, Example 200]
 | 7e-05 | 1.6e+06 | C[C@@H]1CCN(c2ccc3nccc(C(=O)NCC(=O)N4CSC[C@H]4C#N)c3c2)C1=O [US20230312550, Example 202]
 | 6.3e-05 | 440000 | C[C@H]1CCCN(c2ccc3nccc(C(=O)NCC(=O)N4CSC[C@H]4C#N)c3c2)C1=O [US20230312550, Example 203]
 | 5.8e-05 | 850000 | C[C@@H]1CCCN(c2ccc3nccc(C(=O)NCC(=O)N4CSC[C@H]4C#N)c3c2)C1=O [US20230312550, Example 204]
 | 5.3e-05 | 4.6e+06 | CO[C@H]1CCN(c2ccc3nccc(C(=O)NCC(=O)N4CSC[C@H]4C#N)c3c2)C1 [US20230312550, Example 207]
 | 0.00026 | 5.6e+06 | N#C[C@@H]1CSCN1C(=O)CNC(=O)c1ccnc2ccc(N3C[C@@H]4[C@H](C3)[C@H]4C(F)(F)F)cc12 [US20230312550, Example 208]
 | 0.0002 | 5.9e+06 | C[C@@H]1CCCN1c1ccc2nccc(C(=O)NCC(=O)N3CSC[C@H]3C#N)c2c1 [US20230312550, Example 211]
 | 0.00017 | 4.4e+06 | N#C[C@@H]1CSCN1C(=O)CNC(=O)c1ccnc2ccc(N3C[C@H](F)[C@@H](F)C3)cc12 [US20230312550, Example 213]
 | 9.2e-05 | 2.9e+06 | N#C[C@@H]1CSCN1C(=O)CNC(=O)c1ccnc2ccc(N3C[C@@H](F)[C@H](F)C3)cc12 [US20230312550, Example 214]
 | 6.8e-05 | 3e+06 | N#C[C@@H]1CSCN1C(=O)CNC(=O)c1ccnc2ccc(N3C[C@H](O)C(F)(F)C3)cc12 [US20230312550, Example 224]

— BindingDB's records for patent US20230312550 (Astrazeneca, 2023)
